Test results from patent publication US3946000A, “7-[α-(2-Aminomethyl-1-cyclohexenyl)-acetamido]-3-heterocyclic thiomethyl-3-cephem-4-carboxylic acids” (Bristol-Myers Company, priority 1973, dated 1976).
Values after ≈ are worked out from the molar mass of the structure shown. Values joined by “and” are separate entries in the source; they are usually repeats but may differ in a detail not shown here. Equal values may be shown once. Read-outs that look alike come from different tables or passages of the source. Each block holds one molecule with its values, some of them ahead of it.

Tests used:
[1] = Solubility in 0.1 M pH 7.0 phosphate buffer (bioassay and UV-assay); format: physicochemical; settings: for solubility at 4 h: 0.1 m phosphate buffer, pH 7, aqueous buffer
Method: *Stirred at 25° C. for 4 hours in 0.1 M pH 7.0 phosphate
buffer--filtered through Milipore filter (0.45 μ)--assayed
spectroscopically against its own standard.
The test solution and the standard solution are prepared as described below.
About 10 mg. (1) of a sample is placed in a vial and mixed with 1 ml. of 0.1 M phosphate buffer (pH 7.0). The vial is stoppered, sealed with a metal cap, placed on a rotary shaker and agitated at 160 rpm for 4 hr. at 25° C. The solution is filtered through a Millipore filter (HAWP 01300, mean pore size 0.45 μm). The filtrate is diluted to use for bioassay and UV assay as follows:
About 2 mg. of the same sample is weighed precisely and dissolved in 4 ml. of 1% K2 CO3 solution^(3) (usually within one minute). The solution is diluted exactly to 50 ml. in a flask with 0.1 M pH 7.0 phosphate buffer and used for the preparation of the standard solutions for bioassay and UV-assay as follows:
(1) A 20 mg. or more sample is used when the sample is expected to be more soluble.
(2) 0.1 M pH 7.0 phosphate buffer is used as a diluent in the present test and also as a reference solution in UV-assay.
(3) It was previously confirmed that almost the same result is obtained when the sample is solubilized in DMSO (dimethylsulfoxide) and then diluted similarily with the buffer.
(4) Volume of the solution is measured precisely with an appropriate pipette or flask.
BA: Bioassay, UV: UV-assay Results given for the same compound on different lines were obtained using samples from different lots.

[2] = system: E. coli ATCC 8739; experiment: M.I.C. by Tube Dilution, E. coli ATCC 8739; format: cell-based; settings: Escherichia coli, ATCC8739, overnight at 37° C.
[3] = system: K. pneumoniae A9977; experiment: M.I.C. by Tube Dilution, K. pneumoniae A9977; format: cell-based; settings: Klebsiella pneumoniae, 10^-4 dilution, overnight at 37° C.
[4] = system: E coli Juhl; experiment: Minimum curative dose in infected mice, E coli Juhl; format: in vivo; settings: Mus musculus, sc; subcutaneous, mice infected with lethal dose of E coli Juhl; read-out: CD50 (minimum curative dose for 50% of the mice)
[5] = system: S. aureus BX1633 A9606; experiment: M.I.C. by Tube Dilution, S. aureus BX1633 A9606; format: cell-based; settings: Staphylococcus aureus, BX1633A9606, S. aureus BX1633 A9606; Nutrient Broth, overnight at 37° C.
[6] = system: Str. pyogenes A9604; experiment: M.I.C. by Tube Dilution, Str. pyogenes A9604; format: cell-based; settings: Streptococcus pyogenes; Str. pyogenes A9604 + 5% serum; 50% Nutrient Broth - 45% Antibiotic Assay Broth; overnight at 37° C.
[7] = system: Mycobacterium 607; experiment: M.I.C. by Tube Dilution, Mycobacterium 607; format: cell-based; settings: overnight at 37° C.
[8] = system: Ps. aeruginosa A9843; experiment: M.I.C. by Tube Dilution, Ps. aeruginosa A9843; format: cell-based; settings: Pseudomonas aeruginosa, 10^-4 dilution, overnight at 37° C.
[9] = system: E. coli Juhl A15119; experiment: M.I.C. by Tube Dilution, E. coli Juhl A15119; format: cell-based; settings: Escherichia coli, JUHLA15119, 10^-4 dilution, overnight at 37° C.
[10] = system: D. pneumoniae A9585; experiment: M.I.C. by Tube Dilution, D. pneumoniae A9585; format: cell-based; settings: Streptococcus pneumoniae, A9585, D. pneumoniae A9585 + 5% serum; 50% Nutrient Broth - 45% Antibiotic Assay Broth; overnight at 37° C.
[11] = system: Ser. marcescens A20019; experiment: M.I.C. by Tube Dilution, Ser. marcescens A20019; format: cell-based; settings: Serratia marcescens, 10^-4 dilution, overnight at 37° C.
[12] = system: S. aureus BX-1633; experiment: Minimum curative dose in infected mice, S. aureus BX-1633; format: in vivo; settings: Staphylococcus aureus, BX1633, sc; subcutaneous, mice infected with lethal dose of S. aureus BX-1633; read-out: CD50 (minimum curative dose for 50% of the mice)
[13] = system: S. aureus Smith A9537; experiment: M.I.C. by Tube Dilution, S. aureus Smith A9537; format: cell-based; settings: Staphylococcus aureus, 10^-4 dilution, overnight at 37° C.
[14] = system: Sal. enteritidis A9531; experiment: M.I.C. by Tube Dilution, Sal. enteritidis A9531; format: cell-based; settings: Salmonella enterica, 10^-4 dilution, overnight at 37° C.
[15] = system: K. pneumoniae A15130; experiment: M.I.C. by Tube Dilution, K. pneumoniae A15130; format: cell-based; settings: Klebsiella pneumoniae, 10^-4 dilution, overnight at 37° C.
[16] = system: Pr. mirabilis A9900; experiment: M.I.C. by Tube Dilution, Pr. mirabilis A9900; format: cell-based; settings: Proteus mirabilis, 10^-4 dilution, overnight at 37° C.
[17] = system: Pr. morganii A15153; experiment: M.I.C. by Tube Dilution, Pr. morganii A15153; format: cell-based; settings: Morganella morganii, 10^-4 dilution, overnight at 37° C.
[18] = system: E. coli NIHJ; experiment: M.I.C. by Tube Dilution, E. coli NIHJ; format: cell-based; settings: Escherichia coli, overnight at 37° C.
[19] = system: S. aureus Russel; experiment: M.I.C. by Tube Dilution, S. aureus Russel; format: cell-based; settings: Staphylococcus aureus, Nutrient Broth, overnight at 37° C.
[20] = Water solubility; format: physicochemical; settings: sodium salt
[21] = 0.1 M phosphate buffer (pH 7.0), 4 hr. at 25° C., UV-assay, read-out: Solubility, UV (UV-assay)
[22] = 0.1 M phosphate buffer (pH 7.0), 4 hr. at 25° C., bioassay, read-out: Solubility, BA (bioassay)
[23] = stirred at 25° C. for 4 hours in 0.1 M pH 7.0 phosphate buffer, assayed spectroscopically against its own standard, read-out: Solubility

Compound: NCC1=C(CC(=O)NC2C(=O)N3C(C(=O)O)=C(CSc4ccc5nnnn5n4)CSC23)CCCC1 (stereo not drawn) [Example 2, 7-[α-(2-aminomethyl-1-cyclohexenyl)acetamido]-3-(pyradazino[2,3-d]tetrazol-6-ylthiomethyl)-3-cephem-4-carboxylic acid]
solubility at 4 h [1, 21]: 3000 µg/mL (≈ 5.81 mM)
solubility at 4 h [1, 22]: 3000 µg/mL (≈ 5.81 mM)
solubility at 4 h [1, 23]: 3000 µg/mL (≈ 5.81 mM)

Compound: Cn1nnnc1SCC1=C(C(=O)O)N2C(=O)C(NC(=O)CC3=C(CN)CCCC3)[C@H]2SC1 (some centres unmarked) [Example 3, 7-[(2-aminomethyl-1-cyclohexen-1-yl)acetamido]-3-(1-methyltetrazol-5-ylthiomethyl)-3-cephem-4-carboxylic acid]
MIC [2]: 3.1 to 6.3 µg/mL (≈ 0.00646 to 0.0131 mM)
MIC [3]: 0.8 to 3.1 µg/mL (≈ 0.00167 to 0.00646 mM)
ED50 [4]: 5.4 mg/kg
MIC [5]: 1.6 µg/mL (≈ 0.00334 mM)
MIC [6]: 0.04 to 0.08 µg/mL
MIC [7]: > 100 µg/mL
MIC [8]: > 100 µg/mL
Solubility, UV (UV-assay) ([1]; 0.1 M phosphate buffer (pH 7.0), 4 hr. at 25° C., UV-assay, listed as BB-S336, 240 min): 26000 µg/mL (≈ 54.2 mM)
Solubility, BA (bioassay) ([1]; 0.1 M phosphate buffer (pH 7.0), 4 hr. at 25° C., bioassay, listed as BB-S336, 240 min): 23000 µg/mL (≈ 48 mM)
solubility at 4 h [1, 21]: 24600 µg/mL (≈ 51.3 mM)
solubility at 4 h [1, 22]: 25600 µg/mL (≈ 53.4 mM)
solubility at 4 h [1, 23]: 23000 to 26000 µg/mL (≈ 48 to 54.2 mM)
MIC [9]: 3.1 to 6.3 µg/mL (≈ 0.00646 to 0.0131 mM)
MIC [10]: 0.04 to 0.08 µg/mL
MIC [11]: > 100 µg/mL
ED50 [12]: 2.4 mg/kg
MIC ([13]; SMITHA9537, S. aureus Smith A9537 + 50% serum): 0.8 to 1.6 µg/mL
MIC ([13]; SMITHA9537, S. aureus Smith A9537, Nutrient Broth): 0.2 to 0.4 µg/mL (≈ 0.000417 to 0.000834 mM)
MIC [14]: 1.6 to 3.1 µg/mL (≈ 0.00334 to 0.00646 mM)
MIC [15]: 3.1 to 6.3 µg/mL (≈ 0.00646 to 0.0131 mM)
MIC [16]: 100 µg/mL (≈ 0.209 mM)
MIC [17]: > 100 µg/mL
MIC [18]: 1.6 to 3.1 µg/mL (≈ 0.00334 to 0.00646 mM)
MIC [19]: 0.4 to 0.8 µg/mL (≈ 0.000834 to 0.00167 mM)

Compound: Cn1nnnc1SCC1=C(C(=O)O)N2C(=O)C(NC(=O)CC3=C(CN)CCCC3)C2SC1 (centres unmarked) [Example 15]
solubility [20]: > 250000 µg/mL

Compound: NCc1ccccc1CC(=O)NC1C(=O)N2C(C(=O)O)=C(CSc3ccc4nnnn4n3)CSC12 (centres unmarked) [BB-S226, reference compound]
Solubility, UV (UV-assay) ([1]; 0.1 M phosphate buffer (pH 7.0), 4 hr. at 25° C., UV-assay, 240 min): 2100 µg/mL and 3500 µg/mL and 2200 µg/mL
solubility at 4 h [1, 21]: 2500 µg/mL (≈ 4.88 mM)
solubility at 4 h [1, 22]: 3800 µg/mL (≈ 7.41 mM)
solubility at 4 h [1, 23]: 3500 µg/mL (≈ 6.83 mM)

More lines, now with the values ahead:

solubility at 4 h [1, 21]: 8100 µg/mL (≈ 15.2 mM)
solubility at 4 h [1, 22]: 8000 µg/mL (≈ 15 mM)
solubility at 4 h [1, 23]: 8000 µg/mL (≈ 15 mM)
Compound: NCC1=C(CC(=O)NC2C(=O)N3C(C(=O)O)=C(CSc4ccc5nnc(O)n5n4)CSC23)CCCC1 (stereo not drawn) [Example 5, 7-[α-(2-Aminomethyl-1-cyclohexenyl)acetamido]-3-(3-hydroxypyridazino-[3,2-c]-3-triazol-6-ylthiomethyl)-3-cephem-4-carboxylic acid]

solubility at 4 h [1, 21]: 16000 µg/mL (≈ 32.5 mM)
solubility at 4 h [1, 22]: 16800 µg/mL (≈ 34.2 mM)
solubility at 4 h [1, 23]: 16000 to 16800 µg/mL (≈ 32.5 to 34.2 mM)
Compound: NCC1=C(CC(=O)NC2C(=O)N3C(C(=O)O)=C(CSc4ccc(O)nn4)CS[C@H]23)CCCC1 (stereo partly drawn) [Example 1, 7-[α-(2-aminomethyl-1-cyclohexenyl)acetamido]-3-(6-hydroxypyridazin-3-ylthiomethyl)-3-cephem-4-carboxylic acid]
